The source of these data is patent publication US9302992B2, “Multifunctional quinoline derivatives as anti-neurodegenerative agents” (ANNJI PHARMACEUTICAL CO., LTD., priority 2013, dated 2016).

SMILES strings stand for the structures.

Data set [1] relates to undifferentiated PC12 cells. Description: Neurite outgrowth on undifferentiated PC12 cells. The note with it: FIG. 4. In kind it is cell-based.
In a further data set the test system is fAβ-lesioned mice. The experiment in a line: Rotarod test in fAβ-lesioned mice. The data set is classed as in vivo. The note with it: FIG. 6; for riding time in rotarod test: 10 mg/kg, fAβ-lesioned mice; for performance of learning: fAβ-induced memory-deficit mice. (The rotarod test checks motor coordination on a turning rod.)
The subject of a further data set is mice. Description: Animal model: memory and toxicity in mice. The data set is classed as in vivo. The note with it: 1 to 100 mg/kg, preferable 1 to 10 mg/kg, i.p. daily; for toxicity: mice.
A further data set has as its target Aβ (Homo sapiens, UniProt P05067). Description: Aβ aggregation / fAβ formation, microscopy analysis after Congo red staining. The data set is classed as biochemical.
The target in another data set is preformed Aβ aggregates (Homo sapiens, UniProt P05067). Description: Dissolution of preformed Aβ aggregates. The data set is classed as biochemical. The note with it: FIG. 1B and FIG. 2.
Another data set relates to neuron cells. The experiment in a line: Neuroprotection of neuron cells against fAβ. The note with it: for protection of neuron cells from zinc-induced fAβ: FIGS. 3A-B. The data set is classed as cell-based. The method, then: FIGS. 3A-B show compound C12 acting as a neuroprotective agent targeting fAβ.
(§1) Only compound C12 was effective toward zinc-free aggregates (FIG. 3B). […] Mice were assessed for the total duration of movement (FIG. 7A) and total duration of distance (FIG. 7B) to climb onto the hidden platform; and also quantified the appearance to target zone (FIG. 7C) indicating the relative time (compared to total time in swimming) to entry into a zone around the hidden platform; and for average swimming velocity (FIG. 7D) to discriminate enhanced memory from enhanced motor activity.

The test system of data set [2] is memory-deficit fAβ-lesioned mice. Description: Morris water maze test in memory-deficit fAβ-lesioned mice. The data set is classed as in vivo. The note with it: FIGS. 7A-D. As to the method: FIGS. 7A-D show the results of Morris water maze test.
as §1

Data set [3] has the same test system. The experiment in a line: GAP43 level and fAβ level in memory-deficit fAβ-lesioned mice. The data set is classed as in vivo. The note with it: FIG. 8.

Aβ, sequence (P05067 672-711 limits assumed): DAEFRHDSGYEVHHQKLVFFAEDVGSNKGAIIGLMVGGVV
preformed Aβ aggregates, sequence (P05067 672-711 limits assumed): as above

Take `OCCCCCCCCCCCc1ccc2cccc(O)c2n1` [B3, 2-(11-hydroxyundecyl)quinolin-8-ol]: in data set [1], the neurite outgrowth entry was “induction of neurite outgrowth”. In addition, in the data set on fAβ-lesioned mice, the “riding time in rotarod test” value is on record as “increased riding time” and the performance of learning result was “improved performance of learning”. In addition, in the data set with mice, the memory of mice result is “improve memory of mice” and the toxicity result was “without causing significant toxicity”.

Take `COc1cccc2ccc(CCCCCCCCCCCO)nc12` [C3, 11-(8-methoxyquinolin-2-yl)undecan-1-ol]: in data set [1], the neurite outgrowth result is on record as “induction of neurite outgrowth”.

With `COc1ccc(Cl)c2ccc(CCCCCCCCCCCO)nc12` [C12, 11-(5-chloro-8-methoxyquinolin-2-yl)undecan-1-ol], the “polymerization of Aβ” value on Aβ (in the absence of zinc ions, FIG. 2) is recorded as “inhibiting polymerization of Aβ”. Moreover, the Aβ aggregation result at Aβ (in the presence or absence of zinc ions, Congo red staining, FIG. 1A) is on record as “inhibited Aβ aggregation”. Besides, the “dissolution of preformed Aβ aggregates” value at preformed Aβ aggregates was “dissolved preformed Aβ aggregates”. Moreover, in the data set with neuron cells (zinc-free aggregates, FIG. 3B), the “effectiveness toward zinc-free aggregates” value is listed as “effective”. Also, the “protection of neuron cells from zinc-induced fAβ” value with neuron cells is on record as “protected”. For the same compound, in the data set on fAβ-lesioned mice, the “riding time in rotarod test” value was “increased riding time” and the performance of learning result is “improved performance of learning”. Also, the “learning in the Morris water maze test” value in data set [2] is “improved learning”. For the same compound, in data set [3], the GAP43 level entry is given as “increase in GAP43 level” and the fAβ level result is listed as “decrease in fAβ level”. In addition, in the data set with mice, the memory of mice entry was “improve memory of mice” and the toxicity entry is “without causing significant toxicity”.

Take `Oc1c(I)cc(Cl)c2cccnc12` [CQ, reference compound]: the “protection of neuron cells from zinc-induced fAβ” value in the data set with neuron cells is on record as “protected”.

Regarding `CCOc1cccc2ccc(CCCCCCCCCCCO)nc12` [D3, 11-(8-ethoxyquinolin-2-yl)undecan-1-ol], the neurite outgrowth entry in data set [1] is on record as “induction of neurite outgrowth”.
